Measured values as given in US20110082157A1, “Piperidinylamino-Thieno [2,3-D] Pyrimidine Compounds” (priority 2004, published 2011).
Where a name gives a salt, the structure may show the parent alone.

experiment: HLM T1/2; conditions: human, liver microsomes

SMILES	half-life [min]
CC(c1cccc(F)c1)N1CCC(Nc2ncnc3sc4c(c23)CCCC4)CC1 (stereo not shown) [Example B10, N-(1-(1-(3-fluorophenyl)ethyl)piperidin-4-yl)-(5,6,7,8-tetrahydro-benzo[4,5]thieno[2,3-d]pyrimidin-4-amine, dihydrochloride]	< 15
Cc1sc2ncnc(NC3CCN(C(C)c4cccc(F)c4)CC3)c2c1C (stereo not shown) [Example B13, N-(1-(1-(3-fluorophenyl)ethyl)piperidin-4-yl)-5,6-dimethylthieno[2,3-d] pyrimidin-4-amine, dihydrochloride]	< 15
CC(c1cccc(F)c1)N1CCC(C)(Nc2ncnc3sc4c(c23)CCCC4)CC1 (stereo not shown) [Example B15, N-(1-(1-(3-fluorophenyl)ethyl)-4-methylpiperidin-4-yl) 5,6,7,8-tetrahydro-benzo[4,5]thieno[2,3-d]pyrimidin-4-amine, dihydrochloride]	< 15
CC(C)CC(c1cccc(F)c1)N1CCC(Nc2ncnc3sc4c(c23)CCCC4)CC1 (stereo not shown) [Example B16, N-(1-(1-(3-fluorophenyl)-3-methylbutyl)piperidin-4-yl)5,6,7,8-tetrahydro-benzo[4,5]thieno[2,3-d] pyrimidin-4-amine, dihydrochloride]	< 15
CC(c1c(F)cccc1F)N1CCC(Nc2ncnc3sc4c(c23)CCCC4)CC1 (stereo not shown) [Example B21, N-(1-(1-(2,6-difluorophenyl)ethyl)piperidin-4-yl)5,6,7,8-tetrahydro-benzo[4,5]thieno[2,3-d]pyrimidin-4-amine, dihydrochloride]	< 15
CC(C#N)(c1cccc(F)c1)N1CCC(Nc2ncnc3sc4c(c23)CCCC4)CC1 (stereo not shown) [Example B23, 2-(3-fluorophenyl)-2-(4-(5,6,7,8-tetrahydro-benzo[4,5]thieno[2,3-d]pyrimidin-4-ylamino)piperidin-1-yl) propanenitrile, dihydrochloride]	< 15
CC(C)(c1cccc(F)c1)N1CCC(Nc2ncnc3sc4c(c23)CCCC4)CC1 [Example B24, N-(1-(2-(3-fluorophenyl)propan-2-yl)piperidin-4-yl)5,6,7,8-tetrahydro-benzo[4,5]thieno[2,3-d]pyrimidin-4-amine, dihydrochloride]	< 15
Fc1cccc(CNCCCNc2ncnc3sc4c(c23)CCCC4)c1 [Example B25, N-(3-(3-fluorobenzylamino)propyl)5,6,7,8-tetrahydro-benzo[4,5]thieno[2,3-d]pyrimidin-4-amine, dihydrochloride]	< 15
CC(NCCCNc1ncnc2sc3c(c12)CCCC3)c1cccc(F)c1 (stereo not shown) [Example B26, N-(3-(1-(3-fluorophenyl)ethylamino)propyl) 5,6,7,8-tetrahydro-benzo[4,5]thieno[2,3-d] pyrimidin-4-amine, dihydrochloride]	< 15
CC(C)Cc1cc2c(NCCCNC(C)c3cccc(F)c3)ncnc2s1 (stereo not shown) [Example B27, N-(3-(1-(3-fluorophenyl)ethylamino)propyl)-6-isobutylthieno[2,3-d]pyrimidin-4-amine, dihydrochloride]	< 15
Fc1cccc(C(N2CCC(Nc3ncnc4sc5c(c34)CCCC5)CC2)C(F)(F)F)c1 (stereo not shown) [Example B28, N-(1-(2,2,2-trifluoro-1-(3-fluorophenyl)ethyl)piperidin-4-yl)5,6,7,8-tetrahydro-benzo[4,5]thieno[2,3-d]pyrimidin-4-amine, dihydrochloride]	11
CC(C)Cc1cc2c(N3CCC(NCc4cc(F)cc(F)c4)CC3)ncnc2s1 [Example B29, N-(3,5-difluorobenzyl)-1-(6-isobutylthieno[2,3-d]pyrimidin-4-yl) piperidin-4-amine, dihydrochloride]	18
Cc1c(Cl)sc2ncnc(NC3CCN(Cc4cccc(F)c4)CC3)c12 [Example B37, N-(1-(3-fluorobenzyl)piperidin-4-yl)-6-chloro-5-methylthieno[2,3-d]pyrimidin-4-amine, dihydrochloride]	11
